Data published in patent US20250222146A1, “Radiopharmaceuticals Targeting Somatostatin Receptor 2 and Uses Thereof” (RayzeBio, Inc., priority 2023, published 2025).
Numbered stars: 1 amine (or outer) side, 2 acyl side, 3 side chain; on linkers, the order of the positions; unused ones are H or OH. Square brackets hold non-standard residues; d marks the D form. Side chains are listed from the residue outwards. Peptide text beside a SMILES is read from it. * marks the point of attachment. DOTA(Lu)NH(CH2)6NHCOCH2 = O=C(CN1CCN2CCN3CCN(CC1)CC(=O)[O][Lu]([O]C(=O)C2)[O]C(=O)C3)NCCCCCCNC(=O)C*; DOTA(Lu) = O=C1CN2CCN3CCN(CC(=O)*)CCN(CC2)CC(=O)[O][Lu]([O]1)[O]C(=O)C3; Ala(piperidin-4-yl) = O=C([C@H](CC1CCN([*:3])CC1)N[*:1])[*:2]; dTrp(βS-Me) = C[C@@H](c1c[nH]c2ccccc12)[C@@H](N)C(=O)O; dTrp(6-Cl) = N[C@H](Cc1c[nH]c2cc(Cl)ccc12)C(=O)O; dTpi = O=C(O)[C@H]1Cc2c([nH]c3ccccc23)CN1; Phe(3-OMe) = COc1cccc(C[C@H](N)C(=O)O)c1; X2 = O=C([C@H](CCC1CNC1)N[*:1])[*:2]; 4Pal = N[C@@H](Cc1ccncc1)C(=O)O; Cha = N[C@@H](CC1CCCCC1)C(=O)O; Lys(Me) = CNCCCC[C@H](N)C(=O)O; NMehCys = CN[C@@H](CCS)C(=O)O; NMeK = CN[C@@H](CCCCN)C(=O)O; NMeDap = CN[C@@H](CN)C(=O)O; Ahx = NCCCCCC(=O)O

target: SSTR2 (Homo sapiens, UniProt P30874); test: SSTR binding affinity by radioligand binding competition assay ([125I]-Tyr11-Somatostatin, membrane extracts); conditions: radioligand competition, [125I]-Tyr11-Somatostatin 0.1 nM, membrane extracts; Ki from IC50 by Cheng Prusoff; read-out: SSTR2 Ki
Sequence (P30874 whole entry): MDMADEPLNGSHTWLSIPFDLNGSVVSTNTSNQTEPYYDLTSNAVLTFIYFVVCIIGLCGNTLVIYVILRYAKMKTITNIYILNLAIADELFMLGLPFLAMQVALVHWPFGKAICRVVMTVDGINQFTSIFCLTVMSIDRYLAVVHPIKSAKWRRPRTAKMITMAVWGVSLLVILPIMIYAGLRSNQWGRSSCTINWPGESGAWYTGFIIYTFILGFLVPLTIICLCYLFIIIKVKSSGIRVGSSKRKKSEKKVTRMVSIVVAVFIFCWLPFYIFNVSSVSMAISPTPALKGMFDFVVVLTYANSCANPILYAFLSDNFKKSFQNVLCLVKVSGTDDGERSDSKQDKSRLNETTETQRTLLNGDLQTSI

| Compound | Ki [nM] |
| --- | --- |
| C[C@@H](O)[C@@H]1NC(=O)[C@H](CCC2CNC2)NC(=O)[C@@H]([C@@H](C)c2c[nH]c3ccccc23)NC(=O)[C@H](Cc2ccc(O)cc2)NC(=O)[C@H](CCCCNC(=O)CN2CCN3CCN4CCN(CC2)CC(=O)[O][Lu]([O]C(=O)C3)[O]C(=O)C4)N(C)C(=O)[C@H](Cc2ccccc2)NC1=O [RB-0006128] (cyclo(F[NMeK](DOTA(Lu))Y[dTrp(βS-Me)][X2]T)) | < 1 |
| COc1ccc(C[C@@H]2NC(=O)[C@H](CCCCNC(=O)CN3CCN4CCN5CCN(CC3)CC(=O)[O][Lu]([O]C(=O)C4)[O]C(=O)C5)N(C)C(=O)[C@H](Cc3ccccc3)NC(=O)[C@H]([C@@H](C)O)NC(=O)[C@H](CC3CCNCC3)NC(=O)[C@@H]([C@@H](C)c3c[nH]c4ccccc34)NC2=O)cc1 [RB-0006139] (cyclo(F[NMeK](DOTA(Lu))Y(Me)[dTrp(βS-Me)][Ala(piperidin-4-yl)]T)) | 33.3 to 100 |
| C[C@@H](O)[C@@H]1NC(=O)[C@H](CC2CCNCC2)NC(=O)[C@@H]([C@@H](C)c2c[nH]c3ccccc23)NC(=O)[C@H](Cc2ccc(O)cc2)NC(=O)[C@H](CNC(=O)[C@H](CC(=O)O)NC(=O)CCCCCNC(=O)CN2CCN3CCN4CCN(CC2)CC(=O)[O][Lu]([O]C(=O)C3)[O]C(=O)C4)N(C)C(=O)[C@H](Cc2ccccc2)NC1=O [RB-0006158] (cyclo(F[NMeDap]([Asp-Ahx-DOTA(Lu)])Y[dTrp(βS-Me)][Ala(piperidin-4-yl)]T)) | 1 to 3.33 |
| C[C@@H](O)[C@@H]1NC(=O)[C@H](CC2CCNCC2)NC(=O)[C@@H]([C@@H](C)c2c[nH]c3ccccc23)NC(=O)[C@H](Cc2ccc(O)cc2)NC(=O)[C@H](CNC(=O)[C@H](CC(=O)O)NC(=O)CN2CCN3CCN4CCN(CC2)CC(=O)[O][Lu]([O]C(=O)C3)[O]C(=O)C4)N(C)C(=O)[C@H](Cc2ccccc2)NC1=O [RB-0006160] (cyclo(F[NMeDap]([Asp-DOTA(Lu)])Y[dTrp(βS-Me)][Ala(piperidin-4-yl)]T)) | 10 to 33.3 |
| C[C@@H](O)[C@@H]1NC(=O)[C@H](CC2CCNCC2)NC(=O)[C@@H]([C@@H](C)c2c[nH]c3ccccc23)NC(=O)[C@H](Cc2ccc(O)cc2)NC(=O)[C@H](CCCCNC(=O)CN2CCN3CCN4CCN(CC2)CC(=O)[O][Lu]([O]C(=O)C3)[O]C(=O)C4)N(C)C(=O)[C@H](CC2CCCCC2)NC1=O [RB-0006162] (cyclo([Cha][NMeK](DOTA(Lu))Y[dTrp(βS-Me)][Ala(piperidin-4-yl)]T)) | 1 to 3.33 |
| C[C@@H](O)[C@@H]1NC(=O)[C@H](CC2CCNCC2)NC(=O)[C@@H]([C@@H](C)c2c[nH]c3ccccc23)NC(=O)[C@H](Cc2ccc(O)cc2)NC(=O)[C@H](CCCCNC(=O)CN2CCN3CCN4CCN(CC2)CC(=O)[O][Lu]([O]C(=O)C3)[O]C(=O)C4)N(C)C(=O)[C@H](CO)NC1=O [RB-0006166] (cyclo([NMeK](DOTA(Lu))Y[dTrp(βS-Me)][Ala(piperidin-4-yl)]TS)) | 33.3 to 100 |
| C[C@@H](O)[C@@H]1NC(=O)[C@H](CC2CCNCC2)NC(=O)[C@@H]([C@@H](C)c2c[nH]c3ccccc23)NC(=O)[C@H](Cc2ccc(O)cc2)NC(=O)[C@H](CCCCNC(=O)CN2CCN3CCN4CCN(CC2)CC(=O)[O][Lu]([O]C(=O)C3)[O]C(=O)C4)N(C)C(=O)[C@H](Cc2ccncc2)NC1=O [RB-0006170] (cyclo([4Pal][NMeK](DOTA(Lu))Y[dTrp(βS-Me)][Ala(piperidin-4-yl)]T)) | 3.33 to 10 |
| CNCCCC[C@@H]1NC(=O)[C@@H]([C@@H](C)c2c[nH]c3ccccc23)NC(=O)[C@H](Cc2ccc(O)cc2)NC(=O)[C@H](CCCCNC(=O)CN2CCN3CCN4CCN(CC2)CC(=O)[O][Lu]([O]C(=O)C3)[O]C(=O)C4)N(C)C(=O)[C@H](Cc2ccccc2)NC(=O)[C@H]([C@@H](C)O)NC1=O [RB-0006174] (cyclo(F[NMeK](DOTA(Lu))Y[dTrp(βS-Me)][Lys(Me)]T)) | < 1 |
| C[C@@H](O)[C@@H]1NC(=O)[C@H](CC2CCNCC2)NC(=O)[C@@H](Cc2c[nH]c3cc(Cl)ccc23)NC(=O)[C@H](Cc2ccc(O)cc2)NC(=O)[C@H](CCSCC(=O)NCCCCCCNC(=O)CN2CCN3CCN4CCN(CC2)CC(=O)[O][Lu]([O]C(=O)C3)[O]C(=O)C4)N(C)C(=O)[C@H](Cc2ccccc2)NC1=O [RB-0006189] (cyclo(F[NMehCys](DOTA(Lu)NH(CH2)6NHCOCH2)Y[dTrp(6-Cl)][Ala(piperidin-4-yl)]T)) | 1 to 3.33 |
| COc1cccc(C[C@@H]2NC(=O)[C@H](CCCCNC(=O)CN3CCN4CCN5CCN(CC3)CC(=O)[O][Lu]([O]C(=O)C4)[O]C(=O)C5)N(C)C(=O)[C@H](Cc3ccccc3)NC(=O)[C@H]([C@@H](C)O)NC(=O)[C@H](CC3CCNCC3)NC(=O)[C@@H]([C@@H](C)c3c[nH]c4ccccc34)NC2=O)c1 [RB-0006209] (cyclo(F[NMeK](DOTA(Lu))[Phe(3-OMe)][dTrp(βS-Me)][Ala(piperidin-4-yl)]T)) | 1 to 3.33 |
| C[C@@H](O)[C@@H]1NC(=O)[C@H](CC2CCNCC2)NC(=O)[C@H]2Cc3c([nH]c4ccccc34)CN2C(=O)[C@H](Cc2ccc(O)cc2)NC(=O)[C@H](CCCCNC(=O)CN2CCN3CCN4CCN(CC2)CC(=O)[O][Lu]([O]C(=O)C3)[O]C(=O)C4)N(C)C(=O)[C@H](Cc2ccccc2)NC1=O [RB-0006213] (cyclo(F[NMeK](DOTA(Lu))Y[dTpi][Ala(piperidin-4-yl)]T)) | 33.3 to 100 |
